Counter-ions that a name gives are not always drawn.

In the experiment the test system is c-Myc. Kind of experiment: c-Myc immunofluorescence assay. As to conditions: A549 cells, 24 hours treatment, anti-c-Myc immunofluorescence. Format: cell-based, human. In a few lines: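 A549 cells grown 48 h, exposed 24 h to rising compound concentrations, then fixed, permeabilised and stained for c-Myc plus DAPI. Nuclear-segmented c-Myc fluorescence quantified by high-content imaging at 20×; EC50 from logistic dose–response fits.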
As for `NCc1ccc(-c2cn3c(n2)sc2cc(C(=O)NCCCN4CCCCC4)ccc23)cc1Cl` [compound 376, 2-(4-(aminomethyl)-3-chlorophenyl)-N-(3-(piperidin-1-yl)propyl)benzo[d]imidazo [2,1-b]thiazole-7-carboxamide], the “Myc Efficacy (−LogEC50)” value is reported as “+++ (+++ ≥6)”. In the case of `O=C(NCCCN1CCC(F)CC1)c1cc2sc3nc(-c4ccc([C@@H]5CCCN5)cc4F)cn3c2cn1` [Compound 509S, (S)-2-(2-fluoro-4-(pyrrolidin-2-yl)phenyl)-N-(3-(4-fluoropiperidin-1-yl)propyl)imidazo[2′,1′:2,3]thiazolo[4,5-c]pyridine-7-carboxamide], the “Myc Efficacy (−LogEC50)” value is “+++ (+++ ≥6)”.

With `CNC(=O)c1ccc(-c2cn3c(n2)sc2cc(C(=O)NCCCN4CCCCC4)ccc23)cc1` [compound 174, 2-(4-(methylcarbamoyl)phenyl)-N-(3-(piperidin-1-yl)propyl)benzo[d]imidazo [2,1-b]thiazole-7-carboxamide], the “Myc Efficacy (−LogEC50)” value is “+++ (+++ ≥6)”. With `CN1CCC(NC(=O)c2ccc3c(c2)sc2nc(-c4ccc([C@@H]5C[C@@H](O)CN5)cc4F)cn23)CC1` [Compound 522R, 2-(2-fluoro-4-((2S,4R)-4-hydroxypyrrolidin-2-yl)phenyl)-N-(1-methylpiperidin-4-yl)benzo[d]imidazo[2,1-b]thiazole-7-carboxamide] the entry was “+++ (+++ ≥6)”; with `CNC(=O)c1ccc(-c2cn3c(n2)sc2cc(C(=O)NC(C)C4CCOCC4)ccc23)cc1` (centres unmarked) [compound 234, 2-(4-(methylcarbamoyl)phenyl)-N-(1-(tetrahydro-2H-pyran-4-yl)ethyl)benzo[d]imidazo [2,1-b]thiazole-7-carboxamide], “+ (+ >3 and <5)”; with `CNC(=O)c1ccc(-c2nc3sc4cc(C(=O)NCCCN5CCCCC5)ccc4n3n2)c(F)c1` [compound 386, 2-(2-fluoro-4-(methylcarbamoyl)phenyl)-N-(3-(piperidin-1-yl)propyl)benzo[4,5]thiazolo [3,2-b][1,2,4]triazole-6-carboxamide], “+++ (+++ ≥6)”. In the case of `CNC(=O)c1ccc2c(c1)sc1nc(-c3ccc([C@H]4C[C@H](O)CN4)cc3F)cn12` (relative stereo) [Compound 544, 2-(2-fluoro-4-((trans)-4-hydroxypyrrolidin-2-yl)phenyl)-N-methylbenzo[d]imidazo[2,1-b]thiazole-7-carboxamide] it was “+++ (+++ ≥6)”; in that of `CCCSCCCNC(=O)c1ccc2c(c1)sc1nc(-c3ccc(F)cc3)cn12` [compound 105, 2-(4-fluorophenyl)-N-(3-(propylthio)propyl)benzo[d] imidazo[2,1-b]thiazole-7-carboxamide], “+ (+ >3 and <5)”; in that of `Cc1cccc(-c2cn3c(n2)sc2cc(C(=O)N[C@H]4C[C@H](N5CCCCC5)C4)ccc23)c1` [compound 151, N-((1r,3r)-3-(piperidin-1-yl)cyclobutyl)-2-(m-tolyl)benzo[d]imidazo[2,1-b]thiazole-7-carboxamide], “+ (+ >3 and <5)”. With `CNC(=O)c1ccc(-c2cn3c(n2)sc2cc(C(=O)N[C@H]4C[C@@H](OC)C4)ccc23)cc1` [compound 245, N-((1s,3s)-3-methoxycyclobutyl)-2-(4-(methylcarbamoyl)phenyl) benzo[d]imidazo[2,1-b] thiazole-7-carboxamide], the “Myc Efficacy (−LogEC50)” value is reported as “− (− ≤3)”. As to `CN1CCC(NC(=O)c2ccc3c(c2)sc2nc(-c4ccc(C5CCCN5)cc4F)cn23)CC1` (centres unmarked) [Compound 500, 2-(2-fluoro-4-(pyrrolidin-2-yl)phenyl)-N-(1-methylpiperidin-4-yl)benzo[d]imidazo[2,1-b]thiazole-7-carboxamide], the “Myc Efficacy (−LogEC50)” value is reported as “+++ (+++ ≥6)”. `Cc1cccc(-c2cn3c(n2)sc2cc(C(=O)NCCCN4CCC(F)(F)CC4)ccc23)c1` [compound 133, N-(3-(4,4-difluoropiperidin-1-yl)propyl)-2-(m-tolyl)benzo[d]imidazo[2,1-b]thiazole-7-carboxamide]: the “Myc Efficacy (−LogEC50)” value is “++ (++ ≥5 and <6)”.

With `CNC(=O)c1ccc(-c2cn3c(n2)sc2cc(C(=O)NC[C@H]4CC[C@H](O)CC4)ccc23)cc1` [compound 273, N-(((1r,4r)-4-hydroxycyclohexyl)methyl)-2-(4-(methylcarbamoyl)phenyl) benzo[d]imidazo[2,1-b]thiazole-7-carboxamide], the “Myc Efficacy (−LogEC50)” value is “− (− ≤3)”. Regarding `CNC(=O)c1ccc(-c2cn3c(n2)sc2cc(C(=O)NCCCN4CCCC4)ccc23)c(F)c1` [compound 321, 2-(2-fluoro-4-(methylcarbamoyl)phenyl)-N-(3-(pyrrolidin-1-yl)propyl)benzo[d]imidazo [2,1-b]thiazole-7-carboxamide], the “Myc Efficacy (−LogEC50)” value was “++ (++ ≥5 and <6)”. Consider `CN1CCC(C(=O)Nc2ccc3c(c2)sc2nc(-c4ccc(C5CCCN5)cc4F)cn23)CC1` (centres unmarked) [Compound 593, N-(2-(2-fluoro-4-(pyrrolidin-2-yl)phenyl)benzo[d]imidazo[2,1-b]thiazol-7-yl)-1-methylpiperidine-4-carboxamide dihydrochloride], for which the “Myc Efficacy (−LogEC50)” value is listed as “+++ (+++ ≥6)”. For the compound `NCc1ccc(-c2cn3c(n2)sc2cc(C(=O)NCCCN4CCCCC4)ccc23)c(C(F)(F)F)c1` [compound 372, 2-(4-(aminomethyl)-2-(trifluoromethyl)phenyl)-N-(3-(piperidin-1-yl)propyl)benzo[d]imidazo [2,1-b]thiazole-7-carboxamide], the “Myc Efficacy (−LogEC50)” value was “++ (++ ≥5 and <6)”. For the compound `CCc1ccc(-c2cn3c(n2)sc2cc(C(=O)NCCCN(CC)CC)ccc23)cc1` [compound 126, N-(3-(diethylamino)propyl)-2-(4-ethylphenyl)benzo[d] imidazo[2,1-b]thiazole-7-carboxamide], the “Myc Efficacy (−LogEC50)” value was “++ (++ ≥5 and <6)”.

Take `CNC(=O)c1ccc(-c2cn3c(n2)sc2cc(C(=O)NC4CCN(C(=O)C5CC5)CC4)ccc23)cc1` [compound 190, N-(1-(cyclopropanecarbonyl)piperidin-4-yl)-2-(4-(methylcarbamoyl)phenyl) benzo[d]imidazo[2,1-b]thiazole-7-carboxamide]: the “Myc Efficacy (−LogEC50)” value was “+ (+ >3 and <5)”. As for `CCN(CC)CCCNC(=O)c1ccc2c(c1)sc1nc(-c3cccc(OC)c3)cn12` [compound 152, N-(3-(diethylamino)propyl)-2-(3-methoxyphenyl)benzo[d] imidazo[2,1-b]thiazole-7-carboxamide], the “Myc Efficacy (−LogEC50)” value is “++ (++ ≥5 and <6)”. As to `CNC(=O)c1ccc(-c2cn3c(n2)sc2cc(C(=O)N[C@H]4[C@H]5CN[C@@H]4C5)ccc23)cc1` [compound 238, N-((1R,4R,5S)-2-azabicyclo[2.1.1]hexan-5-(methylcarbamoyl)phenyl) benzo[d]imidazo[2,1-b]thiazole-7-carboxamide], the “Myc Efficacy (−LogEC50)” value is given as “− (− ≤3)”. In the case of `O=C(NCCCN1CCC(F)CC1)c1ccc2c(c1)sc1nc(-c3ccc(C4CC(F)(F)CN4)cc3F)cn12` (centres unmarked) [Compound 490, 2-(4-(4,4-difluoropyrrolidin-2-yl)-2-fluorophenyl)-N-(3-(4-fluoropiperidin-1-yl)propyl)benzo[d]imidazo[2,1-b]thiazole-7-carboxamide], the “Myc Efficacy (−LogEC50)” value was “+++ (+++ ≥6)”. Regarding `NCc1c(F)cc(-c2cn3c(n2)sc2cc(C(=O)NCCCN4CCCCC4)ccc23)cc1F` [compound 383, 2-(4-(aminomethyl)-3,5-difluorophenyl)-N-(3-(piperidin-1-yl)propyl)benzo[d]imidazo [2,1-b]thiazole-7-carboxamide], the “Myc Efficacy (−LogEC50)” value is “++ (++ ≥5 and <6)”. For the compound `O=C(NCCCN1CCC(F)CC1)c1ccc2c(c1)sc1nc(-c3ccc([C@@H]4CCCO4)cc3F)cn12` [Compound 428S, (S)-2-(2-fluoro-4-(tetrahydrofuran-2-yl)phenyl)-N-(3-(4-fluoropiperidin-1-yl)propyl)benzo[d]imidazo[2,1-b]thiazole-7-carboxamide], the “Myc Efficacy (−LogEC50)” value is given as “+++ (+++ ≥6)”. Consider `Cc1cccc(-c2cn3c(n2)sc2cc(C(=O)NCCCN4CCOCC4)ccc23)c1` [compound 134, N-(3-morpholinopropyl)-2-(m-tolyl)benzo[d]imidazo[2,1-b]thiazole-7-carboxamide], for which the “Myc Efficacy (−LogEC50)” value was “+ (+ >3 and <5)”. As for `CNC(=O)c1ccc(-c2cn3c(n2)sc2cc(C(=O)NCC4(C)CCOC4)ccc23)cc1` (centres unmarked) [compound 210, 2-(4-(methylcarbamoyl)phenyl)-N-((3-methyltetrahydrofuran-3-yl)methyl)benzo[d]imidazo [2,1-b]thiazole-7-carboxamide], the “Myc Efficacy (−LogEC50)” value was “+ (+ >3 and <5)”. `CN1CCC(NC(=O)c2ccc3c(c2)sc2nc(-c4ccc(N5CCNCC5)cc4F)cn23)CC1` [Compound 547, 2-(2-fluoro-4-(piperazin-1-yl)phenyl)-N-(1-methylpiperidin-4-yl)benzo[d]imidazo[2,1-b]thiazole-7-carboxamide]: the “Myc Efficacy (−LogEC50)” value was “+++ (+++ ≥6)”.

`NCc1ccc(-c2cn3c(n2)sc2cc(C(=O)NCCCN4CCCCC4)ccc23)c(C2CC2)c1` [compound 370, 2-(4-(aminomethyl)-2-cyclopropylphenyl)-N-(3-(piperidin-1-yl)propyl)benzo[d]imidazo [2,1-b]thiazole-7-carboxamide]: the “Myc Efficacy (−LogEC50)” value is listed as “+++ (+++ ≥6)”.

Turning to `Cc1c(-c2ccc([C@@H]3CCCN3)cc2F)nc2sc3cc(C(=O)NCCCN4CCC(F)CC4)ccc3n12` [Compound 464S, (S)-2-(2-fluoro-4-(pyrrolidin-2-yl)phenyl)-N-(3-(4-fluoropiperidin-1-yl)propyl)-3-methylbenzo[d]imidazo[2,1-b]thiazole-7-carboxamide dihydrochloride], the “Myc Efficacy (−LogEC50)” value is “+++ (+++ ≥6)”. Regarding `CNC(=O)c1ccc(-c2nc3sc4cc(C(=O)NCCCN5CCCCC5)ccc4n3n2)cc1` [compound 319, 2-(4-(methylcarbamoyl)phenyl)-N-(3-(piperidin-1-yl)propyl)benzo[4,5]thiazolo [3,2-b][1,2,4]triazole-6-carboxamide], the “Myc Efficacy (−LogEC50)” value was “++ (++ ≥5 and <6)”.
